The numbers were not newly measured in patent EP1096056A1, “Wrinkle resistant composition” (THE PROCTER & GAMBLE COMPANY, priority 1999, dated 2001), which cites them from elsewhere.

Structures can show the parent of a compound that is named as a salt.

The conditions of data set [1]: in water.

On to `Cn1sc2c(c1=O)CCC2` [Promexal, 2-methyl-4,5-trimethylene-4-isothiazolin-3-one], for which the “stability over a wide pH range” value is reported as 4-12. For `O=c1[nH]sc2ccccc12` [Proxel, 1,2-benzisothiazolin-3-one], the “stability over a wide pH range” value is recorded as 4-12. Regarding `[H]/N=C(\N/C(=N/[H])NCCCCCCNC(=N)NC(=N)Nc1ccc(Cl)cc1)Nc1ccc(Cl)cc1` [diacetate salt, 1,1'-hexamethylene bis(5-(p-chlorophenyl)biguanide)], in data set [1], the water solubility result was “about 1.8%”.

For the compound `[H]/N=C(\N/C(=N/[H])NCCCCCCNC(=N)NC(=N)Nc1ccc(Cl)cc1)Nc1ccc(Cl)cc1` [digluconate salt, 1,1'-hexamethylene bis(5-(p-chlorophenyl)biguanide)], the water solubility entry in data set [1] was “about 70%”. Regarding `[Na+].[O-][n+]1ccccc1[S-]` [sodium pyrithione], in data set [1], the water solubility result was “about 50%”.
